Legend:
Assay type in all cases: in vivo
[1] = tested on: Abutilon theophrasti (ABUTH); assay: Post-emergence herbicidal action; details: for Post-emergence action ABUTH: 320 g/ha, visual rating after about 3 weeks vs untreated controls, 100% = plants have died
Method: (§1) Seeds of monocotyledonous and dicotyledonous weeds and crop plants are placed in sandy loam in plastic or organic plant pots, covered with soil and cultivated in a greenhouse under controlled growth conditions. 2 to 3 weeks after sowing, the test plants are treated at the one-leaf stage. The compounds of the invention, formulated in the form of wettable powders (WP) or as emulsion concentrates (EC), are then sprayed onto the green parts of the plants as aqueous suspension or emulsion with addition of 0.5% additive at a water application rate of 600 l/ha (converted). After the test plants have been kept in the greenhouse under optimum growth conditions for about 3 weeks, the activity of the preparations is rated visually in comparison to untreated controls. For example, 100% activity=the plants have died, 0% activity=like control plants.
(§2) The abbreviations used here have the following meanings: • ABUTH Abutilon theophrasti • AMARE Amaranlhus retroflexus • CYPES Cyperus serotinus • ECHCGEchinocloa crus galli • LOLRI Lolium rigidum Gaudin • PHBPU Pharbitis purpurcum • SETVI Setaria viridis • VERPE Veronica persica • ALOMY Alopccurus myosuroides • AVEFA Avena fatua • DIGSA Digitaria sanguinalis • LOLMU Lolium multiflorum • MATIN Matricaria inodora • POLCO Polygonum convolvulus • STEME Stellaria media • VIOTR Viola tricolor
(§3) The compounds according to the invention were tested by the post-emergence and pre-emergence methods under the conditions described above for comparative purposes with the structurally closest compounds known from WO 2005/089551 A1 (D1).

[2] = tested on: Avena fatua (AVEFA); assay: Post-emergence herbicidal action; details: for Post-emergence action AVEFA: 320 g/ha, visual rating after about 3 weeks vs untreated controls, 100% = plants have died
Method: as §1, §2, §3

[3] = tested on: Echinochloa crus-galli (ECHCG); assay: Post-emergence herbicidal action; details: for Post-emergence action ECHCG: 320 g/ha, visual rating after about 3 weeks vs untreated controls, 100% = plants have died; for Herbicidal action against ECHCG: 80 g of a.i./ha, comparative test
Method: as §1, §2, §3

[4] = tested on: Lolium multiflorum (LOLMU); assay: Post-emergence herbicidal action
Method: as §1, §2, §3

[5] = tested on: Matricaria inodora (MATIN); assay: Post-emergence herbicidal action; details: for Post-emergence action MATIN: 320 g/ha, visual rating after about 3 weeks vs untreated controls, 100% = plants have died; for Herbicidal action against MATIN: 80 g of a.i./ha, comparative test
Method: as §1, §2, §3

[6] = tested on: Setaria viridis (SETVI); assay: Post-emergence herbicidal action; details: for Post-emergence action SETVI: 320 g/ha, visual rating after about 3 weeks vs untreated controls, 100% = plants have died; for Herbicidal action against SETVI: 80 g of a.i./ha, comparative test
Method: as §1, §2, §3

[7] = tested on: Stellaria media (STEME); assay: Post-emergence herbicidal action; details: for Post-emergence action STEME: 320 g/ha, visual rating after about 3 weeks vs untreated controls, 100% = plants have died
Method: as §1, §2, §3

[8] = tested on: Amaranthus retroflexus (AMARE); assay: Post-emergence herbicidal action; details: 320 g/ha, visual rating after about 3 weeks vs untreated controls, 100% = plants have died
Method: as §1, §2

[9] = tested on: Veronica persica (VERPE); assay: Post-emergence herbicidal action; details: 320 g/ha, visual rating after about 3 weeks vs untreated controls, 100% = plants have died
Method: as §1, §2

[10] = tested on: Viola tricolor (VIOTR); assay: Post-emergence herbicidal action; details: 320 g/ha, visual rating after about 3 weeks vs untreated controls, 100% = plants have died
Method: as §1, §2

[11] = tested on: Alopecurus myosuroides (ALOMY); assay: Pre-emergence herbicidal action; details: for Herbicidal action against ALOMY: 80 g of a.i./ha, comparative test; for Pre-emergence action ALOMY: 320 g/ha, visual scoring after about 3 weeks vs untreated controls, 100% = plants have died
Excerpt: as §2
(§4) Seeds of monocotyledonous and dicotyledonous weed plants and crop plants are placed in plastic or organic plant pots and covered with soil. The compounds of the invention, formulated in the form of wettable powders (WP) or as emulsion concentrates (EC), are then applied onto the surface of the covering soil as aqueous suspension or emulsion with addition of 0.5% additive at a water application rate of 600 l/ha (converted). After the treatment, the pots are placed in a greenhouse and kept under good growth conditions for the trial plants. After about 3 weeks, the effect of the preparations is scored visually in comparison with untreated controls as percentages. For example, 100% activity=the plants have died, 0% activity=like control plants.
as §3

[12] = tested on: Echinochloa crus-galli (ECHCG); assay: Pre-emergence herbicidal action; details: for Herbicidal action against ECHCG: 80 g of a.i./ha, comparative test; for Pre-emergence action ECHCG: 320 g/ha, visual scoring after about 3 weeks vs untreated controls, 100% = plants have died
Excerpt: as §2, §4, §3

[13] = tested on: Matricaria inodora (MATIN); assay: Pre-emergence herbicidal action; details: for Herbicidal action against MATIN: 80 g of a.i./ha, comparative test; for Pre-emergence action MATIN: 320 g/ha, visual scoring after about 3 weeks vs untreated controls, 100% = plants have died
Excerpt: as §2, §4, §3

[14] = tested on: Polygonum convolvulus (POLCO); assay: Pre-emergence herbicidal action; details: for Herbicidal action against POLCO: 80 g of a.i./ha, comparative test; for Pre-emergence action POLCO: 320 g/ha, visual scoring after about 3 weeks vs untreated controls, 100% = plants have died
Excerpt: as §2, §4, §3

[15] = tested on: Setaria viridis (SETVI); assay: Pre-emergence herbicidal action; details: for Herbicidal action against SETVI: 80 g of a.i./ha, comparative test; for Pre-emergence action SETVI: 320 g/ha, visual scoring after about 3 weeks vs untreated controls, 100% = plants have died
Excerpt: as §2, §4, §3

[16] = tested on: Stellaria media (STEME); assay: Pre-emergence herbicidal action; details: for Pre-emergence action STEME: 320 g/ha, visual scoring after about 3 weeks vs untreated controls, 100% = plants have died; for Herbicidal action against STEME: 80 g of a.i./ha, comparative test
Excerpt: as §2, §4, §3

[17] = tested on: Viola tricolor (VIOTR); assay: Pre-emergence herbicidal action; details: for Herbicidal action against VIOTR: 80 g of a.i./ha, comparative test; for Pre-emergence action VIOTR: 320 g/ha, visual scoring after about 3 weeks vs untreated controls, 100% = plants have died
Excerpt: as §2, §4, §3

[18] = tested on: Amaranthus retroflexus (AMARE); assay: Pre-emergence herbicidal action; details: 320 g/ha, visual scoring after about 3 weeks vs untreated controls, 100% = plants have died
Excerpt: as §2, §4

[19] = tested on: Pharbitis purpurea (PHBPU); assay: Pre-emergence herbicidal action; details: 320 g/ha, visual scoring after about 3 weeks vs untreated controls, 100% = plants have died
Excerpt: as §2, §4

[20] = tested on: Veronica persica (VERPE); assay: Pre-emergence herbicidal action; details: 320 g/ha, visual scoring after about 3 weeks vs untreated controls, 100% = plants have died
Excerpt: as §2, §4

[21] = tested on: harmful plants such as Abutilon theophrasti, Alopecurus myosuroides, Amaranthus retroflexus, Avena fatua, Echinochloa crus-galli, Matricaria inodora, Pharbitis …; assay: Post-emergence herbicidal action, summary in text; details: post-emergence treatment
Method: as §1
In this case, for example, in the post-emergence process, the compounds No. 1-001 and 111-001 have very good herbicidal activity (80% to 100% herbicidal action) against harmful plants such as Abutilon theophrasti, Alopecurus myosuroides, Amaranthus retroflexus, Avena fatua, Echinochloa crus-galli, Matricaria inodora, Pharbitis purpurea, Setaria viridis, Stellaria media, Veronica persica and Viola tricolor at an application rate of 0.32 kg of active substance or less per hectare. At the same time, some compounds according to the invention leave graminaceous crops such as barley, wheat, rye, millet/sorghum, maize, rice or sugarcane virtually undamaged when applied by the post-emergence method, even at high active compound dosages. Some substances are additionally also benign to dicotyledonous crops such as soya, cotton, oilseed rape or sugarbeet.

[22] = tested on: Alopecurus myosuroides (ALOMY); assay: Post-emergence herbicidal action
Method: as §1, §2, §3

[23] = tested on: Abutilon theophrasti (ABUTH); assay: Pre-emergence herbicidal action; details: 320 g/ha, visual scoring after about 3 weeks vs untreated controls, 100% = plants have died
Excerpt: as §2, §4

[24] = tested on: Digitaria sanguinalis (DIGSA); assay: Pre-emergence herbicidal action; details: 320 g/ha, visual scoring after about 3 weeks vs untreated controls, 100% = plants have died
Excerpt: as §2, §4

[25] = tested on: Lolium rigidum Gaudin (LOLRI); assay: Pre-emergence herbicidal action; details: 320 g/ha, visual scoring after about 3 weeks vs untreated controls, 100% = plants have died
Excerpt: as §2, §4

[26] = tested on: Polygonum convolvulus (POLCO); assay: Post-emergence herbicidal action; details: 320 g/ha, visual rating after about 3 weeks vs untreated controls, 100% = plants have died
Method: as §1, §2, §3

[27] = tested on: Pharbitis purpurea (PHBPU); assay: Post-emergence herbicidal action; details: 320 g/ha, visual rating after about 3 weeks vs untreated controls, 100% = plants have died
Method: as §1, §2

[28] = 320 g/ha, visual rating after about 3 weeks vs untreated controls, 100% = plants have died
[29] = 80 g of a.i./ha, comparative test

FC(F)(F)c1cccc(Oc2nc(C3CC3)cc(-n3cc(C(F)(F)F)cn3)n2)c1 [II-001]
Post-emergence action ABUTH [1]: 90% | Post-emergence action AVEFA [2]: 50% | Post-emergence action ECHCG [3]: 80% | Post-emergence action LOLMU [4, 28]: 70% | Post-emergence action MATIN [5]: 80% | Post-emergence action SETVI [6]: 80% | Post-emergence action STEME [7]: 90% | Post-emergence action AMARE [8]: 90% | Post-emergence action VERPE [9]: 100% | Post-emergence action VIOTR [10]: 100% | Herbicidal action against ALOMY [11]: 60% | Pre-emergence action ALOMY [11]: 100% | Herbicidal action against ECHCG [12]: 80% | Pre-emergence action ECHCG [12]: 80% | Herbicidal action against MATIN [13]: 80% | Pre-emergence action MATIN [13]: 100% | Herbicidal action against POLCO [14]: 20% | Herbicidal action against SETVI [15]: 90% | Pre-emergence action SETVI [15]: 100% | Pre-emergence action STEME [16]: 90% | Herbicidal action against VIOTR [17]: 90% | Pre-emergence action VIOTR [17]: 90% | Pre-emergence action AMARE [18]: 90% | Pre-emergence action PHBPU [19]: 80% | Pre-emergence action VERPE [20]: 90% | herbicidal action against harmful plants (in words) [21]: good herbicidal action

FC(F)(F)Oc1cccc(Oc2nc(C3CC3)cc(-n3cc(C(F)(F)F)cn3)n2)c1 [II-004]
Herbicidal action against ALOMY [22, 29]: 50% | Post-emergence action ALOMY [22, 28]: 80% | Herbicidal action against ECHCG [3]: 40% | Post-emergence action ECHCG [3]: 90% | Herbicidal action against MATIN [5]: 40% | Herbicidal action against SETVI [6]: 50% | Post-emergence action SETVI [6]: 90% | Post-emergence action STEME [7]: 80% | Post-emergence action AMARE [8]: 90% | Post-emergence action VERPE [9]: 90% | Post-emergence action VIOTR [10]: 90% | Herbicidal action against ALOMY [11]: 70% | Pre-emergence action ALOMY [11]: 90% | Herbicidal action against ECHCG [12]: 30% | Herbicidal action against MATIN [13]: 80% | Pre-emergence action MATIN [13]: 100% | Herbicidal action against POLCO [14]: 50% | Pre-emergence action POLCO [14]: 90% | Herbicidal action against SETVI [15]: 100% | Pre-emergence action SETVI [15]: 100% | Herbicidal action against STEME [16]: 70% | Pre-emergence action STEME [16]: 100% | Herbicidal action against VIOTR [17]: 100% | Pre-emergence action VIOTR [17]: 100% | Pre-emergence action ABUTH [23]: 80% | Pre-emergence action AMARE [18]: 100% | Pre-emergence action DIGSA [24]: 100% | Pre-emergence action LOLRI [25]: 90% | Pre-emergence action PHBPU [19]: 80% | Pre-emergence action VERPE [20]: 100%

FC(F)(F)c1cnn(-c2cc(C3CC3)nc(Oc3csc(C(F)(F)F)c3)n2)c1 [IV-001]
Herbicidal action against ABUTH [1, 29]: 80% | Post-emergence action ABUTH [1]: 90% | Herbicidal action against AVEFA [2, 29]: 60% | Post-emergence action AVEFA [2]: 80% | Herbicidal action against ECHCG [3]: 70% | Post-emergence action ECHCG [3]: 80% | Herbicidal action against LOLMU [4, 29]: 40% | Herbicidal action against MATIN [5]: 80% | Post-emergence action MATIN [5]: 90% | Post-emergence action POLCO [26]: 90% | Herbicidal action against SETVI [6]: 70% | Post-emergence action SETVI [6]: 80% | Herbicidal action against STEME [7, 29]: 100% | Post-emergence action STEME [7]: 100% | Post-emergence action AMARE [8]: 100% | Post-emergence action PHBPU [27]: 80% | Post-emergence action VERPE [9]: 100% | Post-emergence action VIOTR [10]: 90% | Herbicidal action against ALOMY [11]: 70% | Pre-emergence action ALOMY [11]: 100% | Herbicidal action against ECHCG [12]: 70% | Pre-emergence action ECHCG [12]: 100% | Herbicidal action against MATIN [13]: 90% | Pre-emergence action MATIN [13]: 100% | Herbicidal action against POLCO [14]: 20% | Pre-emergence action POLCO [14]: 80% | Herbicidal action against SETVI [15]: 90% | Pre-emergence action SETVI [15]: 90% | Herbicidal action against STEME [16]: 90% | Pre-emergence action STEME [16]: 100% | Herbicidal action against VIOTR [17]: 90% | Pre-emergence action VIOTR [17]: 90% | Pre-emergence action AMARE [18]: 100% | Pre-emergence action VERPE [20]: 90% | herbicidal action against harmful plants (in words) [21]: good herbicidal action
